The values below come from paper PMC6214026, “PSMA-Oriented Target Delivery of Novel Anticancer Prodrugs: Design, Synthesis, and Biological Evaluations of Oligopeptide-Camptothecin Conjugates” (International Journal of Molecular Sciences, 2018).

Read-outs that look alike come from different tables or passages of the source.

The subject of test [1] is DU145 cells (non-PSMA-expressing). Description: cells. The format is cell-based, human. As to conditions: read-out: IC50 DU145. Here is the method: (§1) The cytotoxicities of PSMA-activated prodrug CPT-HT-J-ZLn and PSMA hydrolysate CPT-D-GLn were evaluated by MTT assays on PSMA-expressing (PSMA^+) cancer cell LNCaP-FGC, non-PSMA-expressing (PSMA^−) cancer cells HepG2, MCF-7, Hela, DU145, and PC-3, and normal cells MDCK, LO2, respectively, using CPT as a positive control.
(§2) The human prostate cancer cell line (LNCaP-FGC), human prostate cancer cell line (PC-3), human prostate cancer cell line (DU-145), human breast cancer cell line (MCF-7), human hepatocellular carcinoma cell line (HepG2), human cervical cancer cell line (Hela), were obtained from the Chinese Academy of Medical Sciences and Peking Union Medical College. The cultures of the cells were maintained as a monolayer in RPMI 1640 or DMEM supplemented with 10% (v/v) heat inactivated fetal bovine serum and 1% (v/v) enicillin/streptomycin (Corning, New York, NY, USA) and incubated at 37 °C in a humidified atmosphere with 5% CO2. The tested compounds were dissolved in DMSO (Sigma, St. Louis, MO, USA) and added at required concentrations to the cell culture.
(§3) The cytotoxicity of all the tested compounds was evaluated in vitro via the MTT method against PSMA-expressing LNCaP-FGC cells and non-PSMA-expressing cells HepG2, Hela, MCF-7, DU145, PC-3 cells using CPT as the positive control. Tumor cells growing in the logarithmic phase were seeded in 96-well plates at a density 3 × 10^3 cells/well and incubated overnight. The following day, cells were then treated with serial dilutions of the tested compounds for 72 h. At the end of this incubation, 20 µL of 5 mg/mL methylthiazol tetrazolium (MTT) was added to each well and incubation proceeded at 37 °C for another 4 h. After the supernatant medium was thrown away, 150 µL dimethylsulphoxide (DMSO) were added to each well and absorbance was measured at 490 nm using a plate reader (BIORAD 550 spectrophotometer, Bio-rad Life Science Development Ltd., Berkeley, CA, USA). Experiments were performed in triplicate and the values were the average of three (n = 3) independent experiments. The concentration of the compound that results in 50% growth inhibition corresponds to the IC50. Tumor cell growth inhibitory rate was calculated using Equation (1): % inhibition = (1 − Sample group OD/Control group OD) × 100%(1)

Test [2] relates to HepG2 cells (non-PSMA-expressing). As to the kind of experiment: cells. The format is cell-based, human. As to conditions: read-out: IC50 HepG2. Here is the method: as §1, §2, §3
In test [3] the test system is MCF-7 cells (non-PSMA-expressing). Description: cells. The following applies: read-out: IC50 MCF-7. In kind it is cell-based, human. Here is the method: as §1, §2, §3
Test [4] deals with PC-3 cells (non-PSMA-expressing). Description: cells. The format is cell-based, human. As to conditions: read-out: IC50 PC-3. Here is the method: as §1, §2, §3
The test system of test [5] is LNCaP-FGC cells (PSMA-expressing). As to the kind of experiment: MTT cytotoxicity assay, LNCaP-FGC. The following applies: 72 h, read-out: IC50 LNCaP-FGC. The format is cell-based, human. As to the method: as §1, §2, §3
Test [6] deals with HeLa cells (non-PSMA-expressing). Description: MTT cytotoxicity assay, HeLa. In kind it is cell-based, human. The following applies: 72 h, mean ± SD, n = 3. Here is the method: as §1
The tested compounds were dissolved in DMSO (Sigma, St. Louis, MO, USA) and added at required concentrations to the cell culture.
as §3, with “experiments.” for “experiments. The concentration of the compound that results in 50% growth inhibition corresponds to the IC50. Tumor cell growth inhibitory rate was calculated using Equation (1): % inhibition = (1 − Sample group OD/Control group OD) × 100%(1)”
In general terms: Formazan colour is commonly taken as a measure of viable cells.

The subject of the next test is LO2 cells. Description: cells. The format is cell-based. The following applies: read-out: IC50 LO2. Here is the method:
as §1, §3

In the next test the test system is MDCK cells. As to the kind of experiment: cells. As to conditions: 72 h, read-out: IC50 MDCK. In kind it is cell-based. As to the method: as §1, §3

As to `CC[C@@]1(OC(=O)CCCNC(=O)[C@@H](N)CCC(=O)O)C(=O)OCc2c1cc1n(c2=O)Cc2cc3ccccc3nc2-1` [CPT-D-GL4, (S)-4-amino-5-((4-(((S)-4-ethyl-3,14-dioxo-3,4,12,14-tetrahydro-1H-pyrano[3′,4′:6,7]indolizino[1,2-b]quinolin-4-yl)oxy)-4-oxobutyl)amino)-5-oxopentanoic acid], the 50% inhibitory concentration (IC50) is 4.89 ± 0.01 µM in test [1] (Homo sapiens, DU-145, 72 h); more than 40 µM in test [2] (Homo sapiens, HepG2, 72 h); 4.03 ± 0.3 µM in test [3] (Homo sapiens, MCF7, 72 h); 14.9 ± 1 µM in test [4] (Homo sapiens, PC-3, 72 h); 3.68 ± 0.5 µM in test [5] (Homo sapiens); more than 40 µM in test [6] (Homo sapiens, HeLa). Further, the 50% inhibitory concentration (IC50) with LO2 cells (Homo sapiens, L02, 72 h) was found to be 0.4 ± 0.15 µM; in the test with MDCK cells (Canis lupus familiaris, MDCK), 0.23 ± 0.1 µM.

Regarding `CC[C@@]1(OC(=O)CCCCCNC(=O)[C@@H](N)CCC(=O)O)C(=O)OCc2c1cc1n(c2=O)Cc2cc3ccccc3nc2-1` [CPT-D-GL6, (S)-4-amino-5-((6-(((S)-4-ethyl-3,14-dioxo-3,4,12,14-tetrahydro-1H-pyrano[3′,4′:6,7]indolizino[1,2-b]quinolin-4-yl)oxy)-6-oxohexyl)amino)-5-oxopentanoic acid], the IC50 is 3.97 ± 0.16 µM in test [1] (Homo sapiens, DU-145, 72 h); more than 40 µM in test [2] (Homo sapiens, HepG2, 72 h); 17.2 ± 3 µM in test [3] (Homo sapiens, MCF7, 72 h); 12.5 ± 0.8 µM in test [4] (Homo sapiens, PC-3, 72 h); 8.17 ± 1 µM in test [5] (Homo sapiens); more than 40 µM in test [6] (Homo sapiens, HeLa). In addition, the IC50 with LO2 cells (Homo sapiens, L02, 72 h) was determined as 1.5 ± 0.6 µM; with MDCK cells (Canis lupus familiaris, MDCK), 4 ± 0.42 µM.

`CC[C@@]1(OC(=O)CCCCCNC(=O)[C@@H](N)CCC(=O)N[C@@H](CCC(=O)N[C@@H](CCC(=O)N[C@@H](CC(=O)O)C(=O)N[C@@H](CCC(=O)O)C(=O)O)C(=O)O)C(=O)O)C(=O)OCc2c1cc1n(c2=O)Cc2cc3ccccc3nc2-1` [CPT-HT-J-ZL6, (3S,6S,11S,16S,21S)-21-amino-6-(carboxymethyl)-29-(((S)-4-ethyl-3,14-dioxo-3,4,12,14-tetrahydro-1H-pyrano[3′,4′:6,7]indolizino[1,2-b]quinolin-4-yl)oxy)-5,8,13,18,22,29-hexaoxo-4,7,12,17,23-pentaazanonacosane-1,3,11,16-tetracarboxylic acid]: the half-inhibitory concentration (IC50) in test [1] (MTT, 72 h, mean ± SD, n = 3) was 26.3 ± 1.81 µM; in test [2] (MTT, 72 h, mean ± SD, n = 3), more than 40 µM; in test [3] (MTT, 72 h, mean ± SD, n = 3), 7.03 ± 3.76 µM; in test [4] (MTT, 72 h, mean ± SD, n = 3), 40 ± 3.37 µM; in test [5] (MTT, mean ± SD, n = 3, PSMA+), 3.13 ± 0.4 µM; in test [6] it was more than 40 µM. Moreover, the IC50 with LO2 cells (MTT, 72 h, normal cells) was more than 40 µM; in the test on MDCK cells (MTT, normal cells), 19 ± 3.6 µM.

In the case of `CC[C@@]1(OC(=O)CCCCCCCCCCCN)C(=O)OCc2c1cc1n(c2=O)Cc2cc3ccccc3nc2-1` [CPT-B-L12, (S)-4-ethyl-3,14-dioxo-3,4,12,14-tetrahydro-1H-pyrano[3′,4′:6,7]indolizino[1,2-b]quinolin-4-yl 12-aminododecanoate], the 50% inhibitory concentration (IC50) in test [1] (Homo sapiens, DU-145, 72 h) is 7.32 ± 1.43 µM; in test [2] (Homo sapiens, HepG2, 72 h), more than 40 µM; in test [3] (Homo sapiens, MCF7, 72 h), 5.76 ± 0.86 µM; in test [4] (Homo sapiens, PC-3, 72 h), 6.45 ± 0.42 µM; in test [5] (Homo sapiens), 1.93 ± 1.03 µM; in test [6] (Homo sapiens, HeLa) it was more than 40 µM. Moreover, the half-inhibitory concentration (IC50) in the test with LO2 cells (Homo sapiens, L02, 72 h) stood at 2.63 ± 0.84 µM; in the test on MDCK cells (Canis lupus familiaris, MDCK), 5.2 ± 0.88 µM.

On to `CC[C@@]1(OC(=O)CCCCCCCCCCCNC(=O)[C@@H](N)CCC(=O)O)C(=O)OCc2c1cc1n(c2=O)Cc2cc3ccccc3nc2-1` [CPT-D-GL12, (S)-4-amino-5-((12-(((S)-4-ethyl-3,14-dioxo-3,4,12,14-tetrahydro-1H-pyrano[3′,4′:6,7]indolizino[1,2-b]quinolin-4-yl)oxy)-12-oxododecyl)amino)-5-oxopentanoic acid], for which the 50% inhibitory concentration (IC50) in test [1] (Homo sapiens, DU-145, 72 h) was 7.38 ± 0.2 µM; in test [2] (Homo sapiens, HepG2, 72 h), more than 40 µM; in test [3] (Homo sapiens, MCF7, 72 h) it was more than 40 µM; in test [4] (Homo sapiens, PC-3, 72 h) it was more than 40 µM; in test [5] (Homo sapiens), 2.1 ± 0.68 µM; in test [6] (Homo sapiens, HeLa) it was 25.5 ± 1 µM. Further, the IC50 was 3.8 ± 0.8 µM with LO2 cells (Homo sapiens, L02, 72 h) and 5.1 ± 1.1 µM with MDCK cells (Canis lupus familiaris, MDCK).

`CC[C@@]1(OC(=O)CCCN)C(=O)OCc2c1cc1n(c2=O)Cc2cc3ccccc3nc2-1` [CPT-B-L4, (S)-4-ethyl-3,14-dioxo-3,4,12,14-tetrahydro-1H-pyrano[3′,4′:6,7]indolizino[1,2-b]quinolin-4-yl 4-aminobutanoate]: the IC50 was 0.25 ± 0.13 µM in test [1] (Homo sapiens, DU-145, 72 h); more than 40 µM in test [2] (Homo sapiens, HepG2, 72 h); 1.58 ± 2.42 µM in test [3] (Homo sapiens, MCF7, 72 h); 1 ± 0.1 µM in test [4] (Homo sapiens, PC-3, 72 h); 0.37 ± 0.02 µM in test [5] (Homo sapiens); 4.37 ± 0.5 µM in test [6] (Homo sapiens, HeLa). Further, the IC50 with LO2 cells (Homo sapiens, L02, 72 h) amounted to 1.36 ± 0.3 µM; with MDCK cells (Canis lupus familiaris, MDCK) it was 3.2 ± 2 µM.

On to `CC[C@@]1(OC(=O)CNC(=O)[C@H](CCC(=O)N[C@@H](CCC(=O)N[C@@H](CCC(=O)N[C@@H](CC(=O)OC(C)(C)C)C(=O)N[C@@H](CCC(=O)OC(C)(C)C)C(=O)OC(C)(C)C)C(=O)OC(C)(C)C)C(=O)OC(C)(C)C)NC(=O)OC(C)(C)C)C(=O)OCc2c1cc1n(c2=O)Cc2cc3ccccc3nc2-1` [CPT-HT-J-L2, 14,22,24,9-tetra-tert-butyl 1-((S)-4-ethyl-3,14-dioxo-3,4,12,14-tetrahydro-1H-pyrano[3′,4′:6,7]indolizino[1,2-b]quinolin-4-yl) (4S,9S,14S,19S,22S)-19-(2-(tert-butoxy)-2-oxoethyl)-4-((tert-butoxycarbonyl)amino)-3,7,12,17,20-pentaoxo-2,8,13,18,21-pentaazatetracosane-1,9,14,22,24-pentacarboxylate], for which the half-maximal inhibitory concentration (IC50) was more than 40 µM in test [1] (MTT, 72 h, mean ± SD, n = 3); more than 40 µM in test [2] (MTT, 72 h, mean ± SD, n = 3); more than 40 µM in test [3] (MTT, 72 h, mean ± SD, n = 3); more than 40 µM in test [4] (MTT, 72 h, mean ± SD, n = 3); more than 40 µM in test [5] (MTT, mean ± SD, n = 3, PSMA+); more than 40 µM in test [6]. In addition, the IC50 with LO2 cells (MTT, 72 h, normal cells) is more than 40 µM; with MDCK cells (MTT, normal cells), more than 40 µM.

Consider `CC[C@@]1(OC(=O)CCCCCN)C(=O)OCc2c1cc1n(c2=O)Cc2cc3ccccc3nc2-1` [CPT-B-L6, (S)-4-ethyl-3,14-dioxo-3,4,12,14-tetrahydro-1H-pyrano[3′,4′:6,7]indolizino[1,2-b]quinolin-4-yl 6-aminohexanoate], for which the IC50 is 3.55 ± 0.95 µM in test [1] (Homo sapiens, DU-145, 72 h); more than 40 µM in test [2] (Homo sapiens, HepG2, 72 h); 6.76 ± 1.47 µM in test [3] (Homo sapiens, MCF7, 72 h); 15.9 ± 1.73 µM in test [4] (Homo sapiens, PC-3, 72 h); 1.89 ± 0.2 µM in test [5] (Homo sapiens); 15 ± 0.8 µM in test [6] (Homo sapiens, HeLa). For the same molecule, the IC50 in the test with LO2 cells (Homo sapiens, L02, 72 h) was 2.71 ± 0.38 µM; in the test on MDCK cells (Canis lupus familiaris, MDCK) it was 5.44 ± 3 µM.

As to `CC[C@@]1(OC(=O)CNC(=O)[C@@H](N)CCC(=O)O)C(=O)OCc2c1cc1n(c2=O)Cc2cc3ccccc3nc2-1` [CPT-D-GL2, (S)-4-amino-5-((2-(((S)-4-ethyl-3,14-dioxo-3,4,12,14-tetrahydro-1H-pyrano[3′,4′:6,7]indolizino[1,2-b]quinolin-4-yl)oxy)-2-oxoethyl)amino)-5-oxopentanoic acid], the IC50 is 0.4 ± 0.05 µM in test [1] (Homo sapiens, DU-145, 72 h); more than 40 µM in test [2] (Homo sapiens, HepG2, 72 h); 0.3 ± 0.05 µM in test [3] (Homo sapiens, MCF7, 72 h); 1.5 ± 0.2 µM in test [4] (Homo sapiens, PC-3, 72 h); 3.68 ± 0.36 µM in test [5] (Homo sapiens); more than 40 µM in test [6] (Homo sapiens, HeLa). In addition, the 50% inhibitory concentration (IC50) in the test with LO2 cells (Homo sapiens, L02, 72 h) worked out at 0.16 ± 0.07 µM; in the test on MDCK cells (Canis lupus familiaris, MDCK), 0.26 ± 0.14 µM.

By IC50 is commonly meant the point on the concentration scale where inhibition reaches its midpoint.
